Experimental data as given in patent US20250281485A1, “DIAGNOSIS AND/OR TREATMENT OF HEART FAILURE WITH PRESERVED EJECTION FRACTION” (UNIVERSITEIT MAASTRICHT, priority 2022, published 2025).
Read-outs that look alike come from different tables or passages of the source.

Key:
[1] = biological target: T1, apo-sGC (Homo sapiens, UniProt Q02108+Q02153); test: pVASP/VASP concentration response in fresh P-WBC, sGC activator; type: cell-based
T1 construct: P-WBC is isolated after a 800g centrifugation and treated with sGCs or sGCa; endogenous in cells; host or cells: fresh human platelet-enriched white-blood-cell fraction (P-WBC) from healthy volunteers
T1 sequence (Q02153 1-619): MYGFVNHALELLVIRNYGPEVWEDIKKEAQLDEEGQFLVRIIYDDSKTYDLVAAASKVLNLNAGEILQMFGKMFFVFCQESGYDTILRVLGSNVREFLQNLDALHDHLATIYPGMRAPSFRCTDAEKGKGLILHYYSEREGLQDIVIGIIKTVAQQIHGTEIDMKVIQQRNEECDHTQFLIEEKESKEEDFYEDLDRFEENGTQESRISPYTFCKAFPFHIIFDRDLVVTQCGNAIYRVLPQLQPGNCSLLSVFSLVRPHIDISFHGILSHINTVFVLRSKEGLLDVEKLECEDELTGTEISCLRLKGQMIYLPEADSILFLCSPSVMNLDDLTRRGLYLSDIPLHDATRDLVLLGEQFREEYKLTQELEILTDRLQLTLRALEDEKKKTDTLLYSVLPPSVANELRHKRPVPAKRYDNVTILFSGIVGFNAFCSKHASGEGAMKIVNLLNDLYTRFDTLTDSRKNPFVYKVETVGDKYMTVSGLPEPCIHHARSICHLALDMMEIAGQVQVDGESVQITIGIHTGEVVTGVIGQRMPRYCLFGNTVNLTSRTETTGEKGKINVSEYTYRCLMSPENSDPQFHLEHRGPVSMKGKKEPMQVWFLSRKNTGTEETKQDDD
T1 sequence (Q02108 1-690): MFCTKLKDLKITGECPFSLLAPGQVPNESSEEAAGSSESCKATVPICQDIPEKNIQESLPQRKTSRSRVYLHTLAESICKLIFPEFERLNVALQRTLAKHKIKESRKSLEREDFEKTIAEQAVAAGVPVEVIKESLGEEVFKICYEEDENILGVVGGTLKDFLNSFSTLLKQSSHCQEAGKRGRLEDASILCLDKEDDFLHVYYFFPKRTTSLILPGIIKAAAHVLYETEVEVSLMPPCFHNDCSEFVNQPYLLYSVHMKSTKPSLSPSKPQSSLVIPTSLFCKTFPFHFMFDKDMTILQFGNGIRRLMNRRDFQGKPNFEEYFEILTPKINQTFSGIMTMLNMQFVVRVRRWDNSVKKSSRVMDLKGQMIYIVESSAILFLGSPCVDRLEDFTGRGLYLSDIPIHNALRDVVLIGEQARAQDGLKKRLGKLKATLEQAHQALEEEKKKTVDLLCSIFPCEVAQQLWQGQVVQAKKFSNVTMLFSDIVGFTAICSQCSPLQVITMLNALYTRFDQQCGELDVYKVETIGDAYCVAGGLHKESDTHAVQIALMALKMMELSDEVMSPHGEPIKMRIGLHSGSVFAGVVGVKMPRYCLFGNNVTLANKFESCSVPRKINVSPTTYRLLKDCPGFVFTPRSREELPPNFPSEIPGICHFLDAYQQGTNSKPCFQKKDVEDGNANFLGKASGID
Description: (§1) Human blood was collected from healthy volunteers after obtaining informed consent according to the Declaration of Helsinki. An ethical approval was granted by the FHML Research Ethics Committee of Maastricht University (FHML-REC/2022/055). Whole blood (WB) was collected by venipuncture in ACD-A tubes (sodium citrate: 22.0 g/L, dextrose 24.5 g/L, citric acid: 8.0 g/L). Centrifugations in various speeds (200 g, 400g, 600g, 800g) were performed for 10 minutes in 18 degrees Celsius (acceleration 1, deceleration 0). Plasma was collected and P-WBC was carefully isolated (500 μl). Cell counting was performed with the automated haematology analyzer Sysmex XP-300. Subsequently, P-WBC was diluted with the same volume of JNL-buffer (130 mM NaCl, 3 mM KCl, 9 mM NaHCO3, 0.81 mM KH2PO4, 0.9 mM MgCI2, 10 mM sodium citrate, 6 mM dextrose, 10 mM Tris base, 2 mM HEPES) pH 7.4. Thereafter, 20 μl of diluted P-WBC were further diluted 1:5 with JNL-buffer for the cell treatments. Cell suspensions were treated with BAY 41-2272 (30 μM) and BAY 58-2667 (10 μM) for 10 minutes at 37° C., and with riociguat and runcaciguat for 15 minutes; in some cases with 10 minutes pretreatment with IBMX. Samples were centrifuged for 10 minutes at 750 g. […]
(§2) All data are expressed as mean±standard error of mean (SEM) of at least three independent experiments. […]

[2] = biological target: T2, sGC (Homo sapiens, UniProt Q02108+Q02153); test: pVASP/VASP concentration response in fresh P-WBC, sGC stimulator; type: cell-based
T2 construct: P-WBC is isolated after a 800g centrifugation and treated with sGCs or sGCa; endogenous in cells; host or cells: fresh human platelet-enriched white-blood-cell fraction (P-WBC) from healthy volunteers
T2 sequence (Q02153 1-619): T1 sequence (Q02153 1-619)
T2 sequence (Q02108 1-690): T1 sequence (Q02108 1-690)
Description: as §1, §2

[3] = tested on: HFpEF patients; details: JAMA 2020; cited from earlier work
[4] = tested on: HFpEF patients; details: JAMA 2020; cited from earlier work; remark: listed apart in the source
[5] = tested on: HFpEF patients; details: JAMA 2013; cited from earlier work
[6] = in the presence of 500 μM IBMX (FIG. 14D)

C[C@H]([C@H](C(=O)Nc1cc([C@@H](CC(=O)O)C2CC2)ccc1Cl)c1ccc(Cl)cc1)C(F)(F)F [runcaciguat]
concentration at which pVASP response peaked [1, 6]: 1 μM
concentration of maximum effect, pVASP concentration response curve ([1]; without IBMX (FIG. 14B)): 100 μM

COC(=O)N(C)c1c(N)nc(-c2nn(Cc3ccccc3F)c3ncccc23)nc1N [riociguat, Methyl N-[4,6-Diamino-2-[1-[(2-fluorophenyl)methyl]-1H-pyrazolo[3,4-b]pyridin-3-yl]-5-pyrimidinyl]-N-methyl-carbaminate]
concentration at which pVASP response peaked [2, 6]: 100 μM
concentration of maximum effect, pVASP concentration response curve ([2]; without IBMX (FIG. 14B)): > 100 μM

OC(CNc1nc(-c2cc(-c3ccon3)n(Cc3ccccc3F)n2)ncc1F)(C(F)(F)F)C(F)(F)F [Praliciguat]
trial outcome [3]: failed

COC(=O)Nc1c(N)nc(-c2nn(Cc3ccccc3F)c3ncc(F)cc23)nc1N [vericiguat, methyl N-[4,6-diamino-2-[5-fluoro-1-[(2-fluorophenyl)methyl]pyrazolo[3,4-b]pyridin-3-yl]pyrimidin-5-yl]carbamate]
trial outcome [4]: failed

CCCc1nn(C)c2c(=O)[nH]c(-c3cc(S(=O)(=O)N4CCN(C)CC4)ccc3OCC)nc12 [sildenafil]
trial outcome [5]: failure
